In article PMC5394417, “Investigating the molecular mechanism of positive and negative allosteric modulators in the calcium-sensing receptor dimer” (Scientific Reports, 2017):

Biological target: T1, HA-CaSR WT (Rattus norvegicus, UniProt P48442)
T1 construct: mGluR5 signal peptide (N); expressed in transfected cells; host or cells: HEK293T
T1 sequence (P48442 20-1079): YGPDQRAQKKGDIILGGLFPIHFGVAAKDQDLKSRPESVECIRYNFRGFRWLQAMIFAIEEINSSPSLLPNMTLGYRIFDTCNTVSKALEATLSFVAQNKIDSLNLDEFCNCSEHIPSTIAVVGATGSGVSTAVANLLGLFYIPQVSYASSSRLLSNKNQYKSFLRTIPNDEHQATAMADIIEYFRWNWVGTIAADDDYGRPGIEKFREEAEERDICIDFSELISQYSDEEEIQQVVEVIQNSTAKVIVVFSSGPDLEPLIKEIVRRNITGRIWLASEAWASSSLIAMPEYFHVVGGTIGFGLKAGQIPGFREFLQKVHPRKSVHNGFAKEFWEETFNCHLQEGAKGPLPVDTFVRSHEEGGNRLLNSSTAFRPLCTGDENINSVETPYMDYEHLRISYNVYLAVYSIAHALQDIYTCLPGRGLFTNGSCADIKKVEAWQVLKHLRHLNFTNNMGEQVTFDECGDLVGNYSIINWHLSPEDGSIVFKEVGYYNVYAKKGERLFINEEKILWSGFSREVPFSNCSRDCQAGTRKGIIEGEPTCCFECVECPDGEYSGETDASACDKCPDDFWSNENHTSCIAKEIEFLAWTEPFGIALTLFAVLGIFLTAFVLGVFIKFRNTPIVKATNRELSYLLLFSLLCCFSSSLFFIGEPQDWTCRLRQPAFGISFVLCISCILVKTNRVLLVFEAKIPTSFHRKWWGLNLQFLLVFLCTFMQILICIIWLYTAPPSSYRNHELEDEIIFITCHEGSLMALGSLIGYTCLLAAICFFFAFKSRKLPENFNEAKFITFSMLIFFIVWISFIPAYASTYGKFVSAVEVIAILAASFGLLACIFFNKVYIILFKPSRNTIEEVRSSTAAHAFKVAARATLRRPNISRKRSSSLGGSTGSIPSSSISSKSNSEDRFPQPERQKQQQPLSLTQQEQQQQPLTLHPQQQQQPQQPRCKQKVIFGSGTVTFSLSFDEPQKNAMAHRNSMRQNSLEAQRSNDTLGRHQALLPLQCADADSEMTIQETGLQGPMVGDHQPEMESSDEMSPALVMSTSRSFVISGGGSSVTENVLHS
Assay: IP-One assay (IP1 accumulation, Gq signaling), HEK293T transiently transfected
Type: cell-based
Method: Human embryonic kidney (HEK) 293T cells were cultured in DMEM supplemented with 10% dFBS and 1% P/S at 37 °C and 5% CO2. 48 h prior to assay, transient transfection was performed using Lipofectamine 2000 as the transfection reagent. White opaque 96-well culture plates (PerkinElmer, Waltham, MA, USA) were used for the ELISA and the TR-FRET dimerization assay, while clear tissue culture treated 96-well plates (Corning, Corning, NY, USA) were used for the IP-One assay. Both plate types were coated with poly-D-lysine before addition of cells and transfection mix. 0.25 μl/well of Lipofectamine 2000 were diluted in 25 μl/well of Opti-MEM and incubated at room temperature (RT) for 5 min. 0.03 μg/well of DNA was diluted in 25 μl/well of Opti-MEM, and subsequently mixed with the Lipofectamine 2000 dilution and incubated 20 min at RT before addition to the plates. Cell suspensions of 170.000 HEK293T cells/mL were prepared in complete growth medium and 100 μl/well (17.000 cells/well) was added to the plates, which were incubated for 48 h at 37 °C and 5% CO2 before performing assays.
Functional activity was measured using the IP-One assay, which is an IP1 accumulation assay. For agonist testing, ligands were prepared in final concentrations in ligand buffer (HBSS, 20 mM HEPES, pH 7.4 supplemented with 20 mM LiCl). Cells were washed once with 100 μl/well of assay buffer (HBSS, 20 mM HEPES, pH 7.4) and 50 μl/well of agonist solution was added after which plates were incubated at 37 °C for 30 min. Subsequently, ligand solutions were removed and cells were washed with 100 μl/well of assay buffer. Cell lysis was performed by addition of 30 μl/well of IP-One Conjugate & Lysis Buffer (Cisbio Bioassays, Codolet, France) and plates were incubated at RT for 30 min. Afterwards, 30 μl/well of assay buffer was added to dilute the cell lysate. 10 μl/well of cell lysate was transferred from the 96-well plate to a 384-well Optiplate and 10 μl/well of detection solution (Assay buffer + 2.5% of anti-IP1 antibody cryptate Terbium conjugate + 2.5% IP1-d2 conjugate (Cisbio Bioassays, Codolet, France)) was also added. The 384-well plate was incubated for 1 h at RT in dark before being measured on an EnVision plate reader (PerkinElmer, Waltham, MA, USA). Upon excitation at 340 nm, emission at 615 nm and 665 nm was measured, and the FRET ratio (665 nm/615 nm) was converted to IP1 concentrations by interpolating values from an IP1 standard curve generated from a provided IP1 calibrator (Cisbio Bioassays, Codolet, France). When testing allosteric modulators, cells were pre-incubated for 30 min at 37 °C with 50 μl/well of ligand buffer supplemented with allosteric modulator and a final concentration of 1% DMSO. Afterwards, the buffer solution was removed and 50 μl/well of agonist solution in ligand buffer supplemented with allosteric modulator and a final concentration of 1% DMSO was added. Plates were incubated for 30 min at 37 °C followed by one wash in 100 μl/well of assay buffer. Cell lysis and detection was performed as described above.

In the case of [Ca+2] [Ca^2+], the EC50 (Ca^2+ alone, Table 1) is reported as 3.77 mM, the “Hill coefficient ± S.E.M.” value (Ca^2+ alone, Table 1) is reported as 3.62 ± 0.48 and the “pEC50 ± S.E.M.” value (Ca^2+ alone, Table 1) is reported as 2.42 ± 0.01. For the same molecule, the EC50 (Ca^2+ alone, Table 3) was 3.21 mM, the “pEC50 ± S.E.M.” value (Ca^2+ alone, Table 3) was 2.49 ± 0.01 and the “Max ± S.E.M.” value (Ca^2+ alone, normalized to maximum response of WT CaSR, Table 3) was “≈100%”. The EC50 (Ca^2+ with 1 μM NPS R-568) was 1.28 mM, the “pEC50 ± S.E.M.” value (Ca^2+ with 1 μM NPS R-568) was 2.89 ± 0.01 and the “Max ± S.E.M.” value (Ca^2+ with 1 μM NPS R-568, normalized to maximum response with Ca^2+ alone for the construct) was 110 ± 11%. The EC50 (Ca^2+ with 5 μM NPS 2143) was 8.4 mM, the “pEC50 ± S.E.M.” value (Ca^2+ with 5 μM NPS 2143) was 2.08 ± 0.01 and the “Max ± S.E.M.” value (Ca^2+ with 5 μM NPS 2143, normalized to maximum response with Ca^2+ alone for the construct) was 72 ± 5.6%. For the same molecule, the “Max ± S.E.M.” value (normalized to maximum response of WT CaSR, Table 1) was 100%.
